Results reported in publication PMC12040169 (PLOS Biology, 2025).

Assay: in vitro
Conditions: human, hela cells, % viability

Row | SMILES | viability at 28.5 h, 10 µM | viability at 28.5 h, 10 µM (bulk resorufin, single well)
1 | O=S(=O)(NCCOCc1ccccc1)c1ccc2c(c1)Cc1ccccc1-2 [CBK266032] | 101% | –
2 | COc1ccccc1CN(CCCn1ccnc1)Cc1ccco1 [CBK283116] | 111% | –
3 | CCOC(=O)c1c(NC(=O)Cn2nc(C(F)(F)F)c(Cl)c2C)sc2c1CCCC2 [CBK263019] | 98.5% | –
4 | COc1ccnc(N2CCN(C(=O)c3cc(C)nn3C)CC2)n1 [CBK305967] | 83.7% | –
5 | CN(C)C(C(=O)NCC1(C)COC1)c1ccc(Cl)cc1 (stereo not shown) [CBK281753] | 102% | –
6 | COc1cc(NC(=O)N2CCCCC2CO)cc(OC)c1OC (stereo not shown) [CBK155986] | 92% | –
7 | NS(=O)(=O)c1ccc(CCNC(=O)c2cccnc2)cc1 [CBK268158] | 102% | –
8 | CC(Oc1ccccc1)c1nnc(SCC(=O)Nc2ccc(Br)cc2F)n1C (stereo not shown) [CBK266364] | 101% | –
9 | COC(=O)c1cc(-c2cccnc2)[nH]n1 [CBK268945] | 104% | –
10 | CCn1c2cc(C)sc2c2cnn(Cc3cccnc3)c(=O)c21 [CBK284169] | 86.6% | –
11 | OCCN(CCO)CC1CC2C=CC1C2 (stereo not shown) [CBK261874] | 105% | –
12 | CN1CCCN(c2cncc(-c3cccnc3)n2)CC1 [CBK037215] | 92.9% | –
13 | Cn1ccc(CN2CCOC(c3nccs3)C2)cc1=O (stereo not shown) [CBK304921] | 88.8% | –
14 | c1ccc(-c2cn3ccnc3c(NCC3CCOCC3)n2)cc1 [CBK037356] | 99.1% | –
15 | COc1ccc(-c2cc([C@H]3CN4CC[C@H]3C[C@@H]4CNC(=O)c3ccco3)n(C)n2)cc1 [CBK289099] | 113% | –
16 | CSCCCN1C(=O)CN(Cc2ccccc2)C1=O [CBK162363] | 91.4% | –
17 | Cc1cc(CC(=O)NCc2c(-c3ccccc3)noc2C)on1 [CBK144090] | 92.2% | –
18 | O=C(c1cc(-c2cccnc2)[nH]n1)N1CCC(c2ccccc2)C1 (stereo not shown) [CBK281849] | 101% | –
19 | c1cnn(CC2CCCCN2c2ncnc3sccc23)c1 (stereo not shown) [CBK304969] | 92.1% | –
20 | COc1ccc(NC(=O)C(=O)NCc2ccncc2)cc1 [CBK287723] | 105% | –
21 | O=C(CC(NC1CCCC1)C(=O)O)Nc1cccc(Cl)c1 (stereo not shown) [CBK266831] | 105% | –
22 | CC(=O)Nc1cccc(Oc2nccnc2-c2ccc(F)cc2)c1 [CBK106900] | 37.1% | –
23 | COc1ccccc1N1CCN(C(=O)CN2C(=O)c3ccccc3C2=O)CC1 [CBK091501] | 95.5% | –

Row | SMILES | viability at 28.5 h, 10 µM | viability at 28.5 h, 10 µM (bulk resorufin, single well)
24 | Cc1csc(Sc2nc3ccccc3nc2N2CCCC2)n1 [CBK093788] | 99.2% | –
25 | Cc1ccc2nc(NC(=O)c3cc(C)n(C)n3)sc2c1 [CBK287668] | 83.9% | –
26 | Cc1nnc(SCC(=O)N2CCCN(c3ccc(F)cc3)CC2)s1 [CBK306908] | 88.7% | –
27 | COC(=O)C(=O)N1CC[C@H]2NC(=O)N(c3ccc(C(C)C)cc3)C(=O)[C@H]21 [CBK289287] | 105% | –
28 | O=C(O)CCCC(=O)NC(Cc1ccccc1)C(=O)Nc1ccc([N+](=O)[O-])cc1 (stereo not shown) [CBK299806] | 84.5% | –
29 | COc1ccc(C)cc1Nc1nc(N)nc(-c2oc3ccccc3c2C)n1 [CBK269026] | 107% | –
30 | Cc1nc2c(OCC(=O)C(C)(C)C)cccn2c1N(C)C(=O)C1CCCCC1 [CBK147145] | 92.4% | –
31 | Cc1cc(C2CCCCCN2C(=O)c2cc(C3CC3)on2)on1 (stereo not shown) [CBK285414] | 90.1% | –
32 | CCOC(=O)CN1N=C(C)C(Cc2c(Cl)cccc2Cl)(OC)C1=O (stereo not shown) [CBK112646] | 98.1% | –
33 | O=C(c1cscn1)N1CCCC(n2cnc3cc(F)ccc32)C1 (stereo not shown) [CBK284477] | 90.8% | –
34 | Cc1ccc2nsnc2c1NC(=O)COc1ccccc1[N+](=O)[O-] [CBK263779] | 92.7% | –
35 | Cc1ccc(C(=O)N(C)CCN(C)C)c(NCc2cccnc2)n1 [CBK076348] | 91.5% | –
36 | O=C1OC(c2ccco2)=N/C1=C/c1ccccc1OC(=O)c1ccco1 [CBK263980] | 103% | –
37 | CCOC(=O)CC1C(=O)NCCN1Cc1cccc(C)n1 (stereo not shown) [CBK269965] | 101% | –
38 | c1ccc(-c2noc(CN3CCN(C(c4ccccc4)c4ccccc4)CC3)n2)cc1 [CBK265844] | 101% | –
39 | COCCN1C(=O)C2(CC(=O)N(CCCN3C(=O)CCC3=O)C2=O)c2ccccc21 (stereo not shown) [CBK075333] | 117% | –
40 | O=C(CSCc1cccc2ccccc12)Nc1c[nH]c(=O)[nH]c1=O [CBK268500] | 103% | –
41 | CC1CCN(S(=O)(=O)c2ccc(C(=O)O)cc2)CC1 [CBK287195] | 82.7% | –
42 | CN(Cc1ccc(-c2ccc(S(C)(=O)=O)cc2)cn1)C1CCN(C(=O)CC(C)(C)O)CC1 [CBK165684T] | 93.1% | –
43 | O=C(O)c1ccc(/C=N/NC(=O)C2COc3ccccc3O2)cc1 (stereo not shown) [CBK261481] | 100% | –
44 | COc1ccc(Cn2nc(-c3nc(C)no3)c3ccccc32)cc1 [CBK105834] | 90.7% | –
45 | CC1(C(=O)O)CCCC2(C)c3cc(O)ccc3CCC12 (stereo not shown) [CBK027214] | 97.4% | –
46 | Cn1ncnc1CCNC(=O)N1CCCN(Cc2cccs2)CC1 [CBK307670] | 95.8% | –

Row | SMILES | viability at 28.5 h, 10 µM | viability at 28.5 h, 10 µM (bulk resorufin, single well)
47 | c1ccc(Nc2nc(-c3ccc4c(c3)OCO4)cn3ccnc23)cc1 [CBK037494] | 92.2% | –
48 | O=C(Nc1ccc(S(=O)(=O)NCC2CCCO2)cc1)c1cc(-c2ccccc2)nc2ccccc12 (stereo not shown) [CBK267537] | 84.3% | –
49 | Nc1ncnc2c1ncn2C1OC(CO)C(O)C1O (stereo not shown) [CBK024679] | 92.6% | –
50 | OCCOc1cccc2cccnc12 [CBK001784] | 104% | –
51 | CC(C)C(=O)Nc1cc2cccnc2nc1-c1ccsc1 [CBK073649] | 87.8% | –
52 | O=C(c1cccc(S(=O)(=O)Nc2ccc(Br)cc2)c1)N1CCCC1 [CBK296709] | 67.4% | –
53 | CCCCC(=O)NC(c1ccc(Cl)cc1)c1cc([N+](=O)[O-])c2cccnc2c1O (stereo not shown) [CBK293938] | 90.1% | –
54 | CCCc1[nH]nc(O)c1Cc1cc(F)ccc1Br [CBK075031] | 94.6% | –
55 | Cc1ccc(S(=O)(=O)NCCCN2CCOCC2)c(C)c1C [CBK264990] | 89.7% | –
56 | Cc1cc(C)n(CC(=O)NCCCn2ccnc2C(C)C)c(=O)n1 [CBK307185] | 92.4% | –
57 | Cc1nn2cc(-c3n[nH]cc3[N+](=O)[O-])cnc2c1C(N)=O [CBK268957] | 87.4% | –
58 | O=C1CN(C(=O)NCCc2c[nH]c3ccccc23)CCN1 [CBK155866] | 95.8% | –
59 | Cc1ccc(C)c2c(C)c(C(=O)NCC[S+](C)[O-])[nH]c12 (stereo not shown) [CBK282484] | 76.5% | –
60 | CCOc1ccc(S(=O)(=O)N2CCN(Cc3cccc(F)c3C)CC2)c2cccnc12 [CBK062794] | 78.3% | –
61 | CCCCN1C(=O)C(O)(c2c(C)nn(CCO)c2N)c2ccccc21 (stereo not shown) [CBK304286] | – | 116%
62 | CCCC12CN3CC(CCC)(CN(C1)C3C(O)C(O)C(O)CO)C2=O (stereo not shown) [CBK265529] | 88.3% | –
63 | O=C(O)c1ccc(-c2cnc3ccccc3n2)cc1 [CBK288010] | 106% | –
64 | O=C(O)CSc1nnc(-c2ccc(S(=O)(=O)N3CCCCCC3)cc2)o1 [CBK300508] | 81.9% | –
65 | CC(C)c1noc([C@@H]2Cc3[nH]cnc3CN2C(=O)Nc2ccccc2)n1 [CBK288969] | 86.5% | –
66 | CCc1nc(CN2CCN(C(=O)Nc3ccccc3C)CC2)cs1 [CBK305817] | 87.5% | –
67 | O=C1c2ccccc2C2(c3ccccc3)NCCN12 (stereo not shown) [CBK067098] | 101% | –
68 | N#Cc1cc(Nc2ccc(Cc3ccncc3)cc2)c([N+](=O)[O-])cc1C#N [CBK264090] | 93.9% | –
69 | Cn1c(=O)oc2cc(S(=O)(=O)Nc3cccc(CCc4ccccn4)c3)ccc21 [CBK286357] | 102% | –

Row | SMILES | viability at 28.5 h, 10 µM | viability at 28.5 h, 10 µM (bulk resorufin, single well)
70 | Cc1cc(C)cc(Nc2cc(C)n3c(=O)[nH]nc3n2)c1 [CBK288380] | 91.8% | –
71 | CCC#CC(=O)Nc1ccccc1N1CCCNCC1 [CBK024291T] | 98.5% | –
72 | O=C(CC1SC(NC2CC3C=CC2C3)=NC1=O)NCc1ccccc1 (stereo not shown) [CBK049940] | 87.1% | –
73 | Cc1ccnc(NS(=O)(=O)c2ccc(NS(C)(=O)=O)cc2)n1 [CBK261552] | 100% | –
74 | CN(C)CCCC(=O)NCc1ccc(-c2csnn2)cc1 [CBK149288] | 91% | –
75 | O=C(Cn1c(C2CCCNC2)cc2cccnc21)NC1CCCC1 (stereo not shown) [CBK285059] | 97.5% | –
76 | CN1CCC(COC(=O)Nc2cccnc2)CC1 [CBK138232] | 108% | –
77 | Nc1nc(Cl)c2ncn([C@H]3C[C@@H](O)[C@@H](CO)O3)c2n1 [CBK201193] | 100% | –
78 | O=[N+]([O-])c1ccc(N2CCN(S(=O)(=O)c3ccc4ccccc4c3)CC2)cc1NC1CC1 [CBK264361] | 111% | –
79 | O=C(NC(=S)Nc1cccc2ncccc12)c1ccc(N2CCOCC2)c([N+](=O)[O-])c1 [CBK267608] | 87.8% | –
80 | CC(C)c1ccc(S(=O)(=O)NCCc2ccccc2)cc1 [CBK044426] | 94.1% | –
81 | CCCNc1cncc(-c2cccnc2)n1 [CBK037921] | 99.1% | –
82 | O=C(NCc1ccccn1)Nc1ccc2c(c1)OCO2 [CBK267014] | 97.1% | –
83 | O=C1NC(=S)N(Cc2ccco2)C(=O)/C1=C\c1cn(CCOc2ccc(F)cc2)c2ccccc12 [CBK265573] | – | 80.9%
84 | O=C(O)CC(C(=O)Nc1ccc(Cl)cc1)C1CCCO1 (stereo not shown) [CBK264583] | 94.2% | –
85 | Cc1ccc(-n2ncc3c(=O)n(CC(=O)N4CCCCC4)cnc32)cc1 [CBK287532] | 101% | –
86 | COc1ccc(Nc2ncnc3c2oc2ccccc23)cc1 [CBK291236] | 86.5% | –
87 | COc1cc(C(CC(=O)O)C(=O)O)c([N+](=O)[O-])cc1OC (stereo not shown) [CBK268541] | 96.9% | –
88 | CC1CC1C(=O)N1CCCC(c2nn(C)c3ncccc23)C1 (stereo not shown) [CBK282167] | 85.7% | –
89 | CC(NC(=O)c1nn(-c2ccc(F)cc2)c2c1CCCC2)c1ccc2c(c1)OCCO2 (stereo not shown) [CBK296682] | 103% | –
90 | COc1ccc(CCNc2c3c(c(C#N)c4nc5ccccc5n24)CCC3)cc1OC [CBK263147] | 97.9% | –
91 | Nc1nccn(CCOc2cc(F)c(F)cc2F)c1=O [CBK138204T] | 92.6% | –
